Laboratory results reported in patent publication US20230227466A1, “SUBSTITUTED THIENOPYRIMIDINES THAT INTERACT WITH THE RAS SUPERFAMILY FOR THE TREATMENT OF CANCERS, INFLAMMATORY DISEASES, RASOPATHIES, AND FIBROTIC DISEASE” (SHY Therapeutics, LLC, priority 2020, published 2023).
Where two headings read alike, the source gives them in different places.

Tests used:
[1] = biological target: T1, KRas G12C mutant (Homo sapiens, UniProt P01116, G12C); experiment: Ras GTP binding domain inhibition assay (labeled-GTP competition, cell-free)
T1 construct: made in house
Procedure, shortened: (§1)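 First, the His-tagged protein was captured overnight at 4° C on nickel wells. Second, compound was applied at 20 μM or as a dilution series for IC50 over 3 h. Third, 100 nM Cy3- or Cy5-GTP was added for 45 min. Finally, wells were washed and bound label quantified.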

[2] = biological target: T2, KRas G12D mutant (Homo sapiens, UniProt P01116, G12D); experiment: as above
T2 construct: made in house
Procedure, shortened: as §1

[3] = biological target: T3, KRas Q61H mutant (Homo sapiens, UniProt P01116, Q61H); experiment: as above
T3 construct: made in house
Procedure, shortened: as §1

[4] = system: MIA-PaCa-2 pancreatic cancer cell line (KRAS G12C); experiment: Cell proliferation assay (CellTiter 96 Aqueous One); format: cell-based; settings: Homo sapiens; for IC50: MIA PaCa-2, MIA PaCa-2; for inhibition at 10 µM: MIA PaCa-2, read-out: % inh cell proliferation (10 μM) in MIA PaCa-2
Procedure, shortened: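 Percent inhibition of proliferation is derived from MTS absorbance data. Cells seeded at 2000–5000 per well were grown overnight before treatment. Compounds, at 10 μM final or in dilution series, stayed on cells for 2–4 days in medium containing 10% FBS and 0.3% DMSO.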

[5] = biological target: KRas wild type (Homo sapiens, UniProt P01116); experiment: Ras GTP binding domain inhibition assay (labeled-GTP competition, cell-free); parameters: made in house
Procedure, shortened: as §1

[6] = biological target: Rac-1 (Homo sapiens, UniProt P63000); experiment: as above; parameters: made in house
Procedure, shortened: as §1

[7] = biological target: Rho-A (Homo sapiens, UniProt P61586); experiment: as above; parameters: made in house
Procedure, shortened: as §1

[8] = with SOS, read-out: KRas G12C mutant + SOS: % inh.
[9] = without SOS, read-out: KRas G12C mutant: % inh.
[10] = with SOS, read-out: KRas G12D mutant + SOS: % inh.
[11] = without SOS, read-out: KRas G12D mutant: % inh.
[12] = with SOS, read-out: KRas Q61H mutant + SOS: % inh.
[13] = without SOS, read-out: KRas Q61H mutant: % inh.
[14] = with SOS, read-out: KRas wild type + SOS: % inh.
[15] = without SOS, read-out: KRas wild type: % inh.
[16] = with SOS, read-out: Rac-1 + SOS: % inh.
[17] = without SOS, read-out: Rac-1: % inh.
[18] = with SOS, read-out: Rho-A + SOS: % inh.
[19] = without SOS, read-out: Rho-A: % inh.

SMILES | inhibition at 20 µM [1, 8] | inhibition at 20 µM [1, 9] | inhibition at 20 µM [2, 10] | inhibition at 20 µM [2, 11] | inhibition at 20 µM [3, 12] | inhibition at 20 µM [3, 13] | IC50 ([3]; with SOS) | IC50 [4] | inhibition at 10 µM [4] | inhibition at 20 µM [5, 14] | inhibition at 20 µM [5, 15] | inhibition at 20 µM [6, 16] | inhibition at 20 µM [6, 17] | inhibition at 20 µM [7, 18] | inhibition at 20 µM [7, 19]
O=C(c1nc(O)c2scc(-c3ccccn3)c2n1)N1CCCC1 [Compound 19, (4-Hydroxy-7-(pyridin-2-yl)thieno[3,2-d]pyrimidin-2-yl)(pyrrolidin-1-yl)methanone] | 1 to 25% | 1 to 25% | 1 to 25% | 26 to 50% | 1 to 25% | 1 to 25% | > 10 µM | > 10 µM | 0% | 1 to 25% | 1 to 25% | 1 to 25% | 1 to 25% | 26 to 50% | 26 to 50%
CC(C)NC(=O)c1nc(O)c2scc(-c3ccccn3)c2n1 [Compound 20, 4-Hydroxy-N-isopropyl-7-(pyridin-2-yl)thieno[3,2-d]pyrimidine-2-carboxamide] | 26 to 50% | 51 to 75% | 26 to 50% | 26 to 50% | 26 to 50% | 26 to 50% | > 10 µM | > 10 µM | 1 to 25% | 1 to 25% | 51 to 75% | 26 to 50% | 26 to 50% | 26 to 50% | 26 to 50%
COCCNC(=O)c1nc(O)c2scc(-c3ccccn3)c2n1 [Compound 21, 4-Hydroxy-N-(2-methoxyethyl)-7-(pyridin-2-yl)thieno[3,2-d]pyrimidine-2-carboxamide] | 26 to 50% | 26 to 50% | 26 to 50% | 26 to 50% | 26 to 50% | 26 to 50% | > 10 µM | > 10 µM | 1 to 25% | 1 to 25% | 26 to 50% | 26 to 50% | 26 to 50% | 26 to 50% | 51 to 75%
O=C(c1nc(O)c2scc(-c3ccccn3)c2n1)N1CCOCC1 [Compound 22, (4-Hydroxy-7-(pyridin-2-yl)thieno[3,2-d]pyrimidin-2-yl)(morpholino)methanone] | 0% | 1 to 25% | 0% | 1 to 25% | 1 to 25% | 1 to 25% | > 10 µM | > 10 µM | 1 to 25% | 1 to 25% | 1 to 25% | 1 to 25% | 1 to 25% | 1 to 25% | 1 to 25%
O=C(Nc1ccccc1)c1nc(O)c2scc(-c3ccccn3)c2n1 [Compound 23, 4-Hydroxy-N-phenyl-7-(pyridin-2-yl)thieno[3,2-d]pyrimidine-2-carboxamide] | 0% | 1 to 25% | 1 to 25% | 1 to 25% | 1 to 25% | 0% | > 10 µM | > 10 µM | 0% | 1 to 25% | 1 to 25% | 1 to 25% | 1 to 25% | 1 to 25% | 1 to 25%
